One block for each compound: values may come before it.
What was measured:
serotonin receptors = experiment: in vitro binding, serotonin receptors; settings: in vitro binding testing
From the text: (§1) The Formula I compounds are useful pharmacologic agents with psychotropic properties. […] Specifically, nefazodone triazoldione (XIb, "nef-triazoldione") was comparatively tested with nefazodone and the 5-hydroxyethyl metabolite ("OH-nefazodone"). […] The latter observation is significant in that agents with low affinity for alpha-receptors relative to serotonin type 2 receptors are less likely to elicit certain undesirable side effects, such as sedation and lowering of blood pressure.

[1] = metabolite conversion experiment with in vitro human liver microsomal preparation; type: in vitro ADME; settings: compound as substrate
[2] = HPLC of plasma from dogs given nefazodone; type: in vivo, dog; settings: identified by HPLC retention time only
From the text: The similarity of HPLC retention times for both keto-nefazodone and the parent drug nefazodone in many HPLC systems, as well as the small amount of the compound complicate the detection of this putative metabolite.

cholinergic receptor = cholinergic receptor binding; settings: in vitro binding
From the text: as §1

[3] = system: serotonin type 2 receptors; experiment: in vitro binding, serotonin type 2 receptors; settings: compared with nefazodone and OH-nefazodone
From the text: as §1

[4] = circulating metabolite after nefazodone administration to humans and animals; type: in vivo, humans and animals (rat and dog)
From the text: The present invention concerns compounds of Formula I and their acid addition salts and/or hydrates. [drawing 3] In the foregoing structural formula the symbol R denotes halogen, preferably chloro, and trifluoromethyl; Z is hydrogen and [drawing 4] with R^1 being hydrogen, halogen, C1-4 alkoxy and trifluoromethyl; and n is an integer from 2-4. The symbol X is either an oxygen atom, providing a carbonyl moiety; or is an acetyl group. The single and dotted lines represent either a covalent single bond or a double bond. The compounds of Formula I exist then in two structural subclasses, Ia and Ib. [drawing 5] Compounds of formula I arose from investigations of the metabolism of the antidepressant drug nefazodone. […] Subsequently, this new major metabolite was isolated and identified as having the following structure: [drawing 6]
It should be appreciated that compound Ib could also be obtained by enzymatic (human liver microsomes) conversion of compound Ia in vitro. Administration of nefazodone or structural analogs to mammals will result in significant plasma levels of the related Ib compounds. By "significant plasma levels" is meant that these levels are from one to several-fold higher than those of the parent drug.

[5] = system: serotonin type 2 receptor sites; experiment: 5-HT2-mediated DOI-induced headshake response in rat; type: in vivo; settings: acute effect
Procedure: The efficacy of nef-triazoldione at serotonin type 2 receptor sites in vivo was determined by examining its acute effect in a rat model based on the 5-HT2 -mediated DOI (chemically, 1-(2,5-dimethoxy-4-iodophenyl)-2-aminopropane)-induced headshake response. Cf: Bedard and Pycock, Neuropharmacology 16: 663-670 (1977). […] Thus the in vivo results which correlate with selective in vitro binding are indicative of useful antidepressant effects following systemic administration of these compounds.

alpha-receptor = alpha-receptor binding; settings: in vitro binding
From the text: as §1

dopamine receptor = dopamine receptor binding; settings: in vitro binding
From the text: as §1

[6] = compared with nefazodone and OH-nefazodone

Structure (SMILES): CC(O)c1nn(CCCN2CCN(c3cccc(Cl)c3)CC2)c(=O)n1CCOc1ccccc1 (centres unmarked) [OH-nefazodone]
affinity for serotonin receptors (serotonin receptors): displays affinity for serotonin receptors

amount in plasma by HPLC [2]: small amounts
Structure (SMILES): CC(=O)c1nn(CCCN2CCN(c3cccc(Cl)c3)CC2)c(=O)n1CCOc1ccccc1.Cl [keto-nefazodone, 2-(3-[4-(3-Chlorophenyl)-1-piperazinyl]propyl)-5-acetyl-2,4-dihydro-4-(2-phenoxyethyl)-3H-1,2,4-triazol-3-one hydrochloride]
metabolite produced from substrate [1]: nefazodone triazoldione (XIb) was produced and isolated

cholinergic receptor binding (cholinergic receptor): relatively inactive
alpha-receptor binding (alpha-receptor): relatively inactive
dopamine receptor binding (dopamine receptor): relatively inactive
Structure (SMILES): Cl.O=c1[nH]n(CCCN2CCN(c3cccc(Cl)c3)CC2)c(=O)n1CCOc1ccccc1 [nef-triazoldione, 2-(3-[4-(3-Chlorophenyl)-1-piperazinyl]propyl)-4-(2-phenoxyethyl)-4H-1,2,4-triazole-3,5(1H,2H)-dione hydrochloride]
binding at serotonin type 2 receptors [3]: not as robust as for both nefazodone and OH-nefazodone
affinity for serotonin receptors (serotonin receptors): displays affinity for serotonin receptors
metabolite in urine or bile samples ([4]; following nefazodone administration): No indication of this circulating metabolite had been seen in urine or bile samples
blood levels of metabolite ([4]; following nefazodone administration to humans and animals (rat and dog)): Blood levels of a new and uncharacterized major metabolite of nefazodone were observed
inhibition of the DOI-induced headshake response [5]: modest inhibition
potency in DOI-induced headshake test relative to reference compounds [5, 6]: less potent than either nefazodone or OH-nefazodone
affinity at alpha-receptor binding sites relative to reference compounds (alpha-receptor; [6]): lower affinity at alpha-receptor binding sites than the two reference compounds

Structure (SMILES): CCc1nn(CCCN2CCN(c3cccc(Cl)c3)CC2)c(=O)n1CCOc1ccccc1 [nefazodone, Nefazodone]
affinity for serotonin receptors (serotonin receptors): displays affinity for serotonin receptors
